The values below come from US10286356B2, “Process for the removal of acid gases from gaseous mixtures using an aqueous solution of 2-dimethylamino-2-hydroxymethyl-1, 3-propanediol” (Dow Global Technologies LLC, priority 2014, dated 2019).

As a reminder, the pKa is the pH at which an ionisable group is half protonated. Read a low pKa as a group that gives up its proton readily.

A short description of one series: Boiling point (Table 1). It counts as physicochemical.
Series [1] in a line: pKa of the alkanolamines (Table 1). In kind it is physicochemical.

In the case of `OCCNCCO` [DEA, diethanolamine], the Boiling point in the series “Boiling point (Table 1)” is reported as 268 ° F.
`NCCOCCO` [DGA, 2-aminoethoxyethanol] had a pKa in series [1] of 9.4. The molecule also registered a Boiling point in “Boiling point (Table 1)” of 221 ° F.
`CN(C)C(CO)(CO)CO` [DMTA, 2-dimethylamino-2-hydroxymethyl-1,3-propanediol]: the Boiling point in “Boiling point (Table 1)” stood at 335 ° F.
